One test deals with cataleptic rat. In words: reversal of catalepsy in rats. The test is classed as in vivo. To be noted: Rattus norvegicus, sc, subcutaneous, read-out: ED50 (calculated dose to reverse catalepsy by 50%). As to the method: R represents hydrogen or a hydroxyl protecting group, and their optical isomers and pharmaceutically acceptable salts, in particular 2-({[5-(4-fluorophenyl)-pyridin-3ylmethyl]-amino}-methyl)-chroman-4-ol or an optical isomer or a physiologically acceptable salt or solvate thereof, excert an extraordinary potency in reversing catalepsy. Extrapyramidal motor side effects in e.g. rodents are measured by the ability of a drug to induce catalepsy. Catalepsy is defined as a state where an animal continues to remain in an unnormal (nonphysiological ‘uncomfortable’) posture for a long time (e.g.: M. E. Stanley and S. D. Glick, Neuropharmacology, 1996; 15: 393-394; C. J. E. Niemegeers and P. Janssen, Life Sci., 1979, […]). For example, if a hindpaw of a rat is placed on an elevated level, e.g. a platform elevated 3 cm above ground level, a normal rat immediately withdraws the hindpaw from the platform to the ground level. A cataleptic rat remains in this unnatural posture even for minutes.

In test [1] the test system is Parkinsonian cynomolgus monkey. Put plainly: MPTP Parkinsonian cynomolgus monkey, l-dopa-induced adverse effects. In kind it is in vivo. To be noted: MPTP monkeys chronically treated with l-dopa. As to the method: Treatment of adverse effects of conventional anti-Parkinsonian drugs as defined above are determined in a modification of the animal model of the Parkinsonian cynomolgus monkey according to P. J. Blanchet et al., Exp. Neurology 1998; 153: 214-222. Monkeys render parkinsonian by repeated injections of 1-methyl-4-phenyl-1,2,3,6-tetrahydropyridine (MPTP). The Parkinsonian monkeys are chronically treated with the standard 1-dopa therapy according to P. J. Blanchet et al., Mov. Disord., 1998; 13: 798-802. Longterm treatment with l-dopa induces extrapyramidal motor side effects and psychotic states which are both qualitatively and quantitatively, assessed by the Abnormal Involuntary Movement Scale (P. J. Blanchet et al., Mov. Disord. 1998; 13: 798-802) for different body parts (face, neck, trunk, each limb) and by rating for psychotic states by observing the monkey's attention, reactivity and mobility.

The subject of test [2] is Parkinsonian cynomolgus monkey. Put plainly: MPTP Parkinsonian cynomolgus monkey, parkinsonian symptoms (Laval University Disability Scale). In kind it is in vivo. The source says: A typical animal model for idiopathic Parkinson's disease is the Parkinsonian cynomolgus monkey according to P. J. Blanchet et al., Exp. Neurology 1998; 153: 214-222. Monkeys render parkinsonian by repeated injections of 1-methyl-4-phenyl-1,2,3,6-tetrahydropyridine (MPTP). Parkinsonian symptoms are qualitatively assessed by the use of the Laval University Disability Scale (B. Gomez-Mancilla et al., 1993; Mov. Disord. 8: 144-150) measuring the following symptoms: posture, mobility, climbing, gait, holding food, vocalizing, grooming, social interaction.

For test [3], the system named is rats. Put plainly: systemic 3-nitropropionic acid (3-NP) model in rats. In kind it is in vivo, rat. As to the method: A typical animal model is the systemic 3-nitropropionic acid (3-NP) model in rats according to C. V. Borlongan et al., Brain Res., 1995; 697: 254-257. Rats are treated with injections of the selective striatal neurotoxin 3-NP i.p. every fourth day (C. V. Borlongan et al., Brain Res. Protocols, 1997; 1: 253-257). After two injections of 3-NP, rats display nocturnal hyperactivity reflecting symptoms of early Huntington's disease, whereas rats treated with four injections of 3-NP display nocturnal akinesia (hypoactivity) reflecting symptoms of late Huntington's disease. Nocturnal activity is automatically measured in conventional acitivity cages by infrared beams. (2R,4R)-2-({[5-(4-fluorophenyl)-pyridin-3ylmethyl]-amino}-methyl)-chroman-4-ol or a pharmaceutical acceptable salt or solvate thereof reduce both the nocturnal hyperactivity and akinesia.

In a further test the test system is mutant dystonic hamster. Put plainly: mutant dystonic hamster. The test is classed as in vivo. To be noted: scoring system. The source says:
A typical animal model is the mutant dystonic hamster according to A. Richter and W. Löscher, Prog. Neurobiol. 1998; 54: 633-677. In this genetically dystonic hamsters, dystonic attacks are provoked by taking the animal from the home cage and placing it on a balance. The dystonic syndrome consists of a sequence of abnormal movements, and the severity of the single symptoms is rated by a scoring system.

Test [4] deals with rats. Put plainly: neuroleptics-induced muscle rigidity in rats. The test is classed as in vivo, rat. To be noted: enhanced by haloperidol. The source says: A typical animal model is neuroleptics-induced muscle rigidity in rats according to S. Wolfarth et al., Arch. Pharmacol. 1992; 345: 209-212. Rats are challenged with the conventional neuroleptic drug haloperidol which enhances muscle tone. Muscle tone is electromechanically measured as the resistence to passive flexion and extension of the hind limb.

The subject of a further test is Pietrain pig. Put plainly: Campus Syndrome in the Pietrain pig (tremor). To be noted: in vivo. The source says: Typical genetic models in mutant animals are the Campus Syndrome in the Pietrain pig according to A. Richter et al. (Exp. Neurology, 1995; 134: 205-213) or the Weaver mutant mouse according to J. R. Simon and B. Ghetti (Mol. Neurobiol., 1994; 9: 183-189). In the Campus Syndrome model, these mutant pigs show a high-frequency tremor when standing and during locomotion, but not while lying at rest. Assessment of tremor is made by accelerometric recording. In the Weaver mutant mouse, degenerative cerebellar atrophy is […] in association with tremor, gait instability, and toppling over the sides after a few steps.

The values that follow come from patent US7618988B2, “Use of substituted aminomethyl chromans” (Merck Patentgesellschaft, priority 2001, dated 2009).

For the compound `O[C@@H]1C[C@H](CNCc2cncc(-c3ccc(F)cc3)c2)Oc2ccccc21` [(2R,4R)-2-({[5-(4-fluorophenyl)-pyridin-3ylmethyl]-amino}-methyl)-chroman-4-ol], in the test on cataleptic rat, the ED50 (commonly the dose that gives a 50% effect, or the effect in half of the subjects) was around 2 mg/kg. In addition, in test [1], the “choreiform and dystonic dyskinesias (Abnormal Involuntary Movement Scale)” value is “reduce overall choreiform dyskinesias and dystonic dyskinesias”; the psychotic states result is “reduce”. For the same compound, in test [2] (Laval University Disability Scale), the parkinsonian symptoms entry is recorded as “reduce all the parkinsonian symptoms”. Besides, in test [2] (cynomolgus monkey, in vivo), the total activity entry is on record as “increased total activity”. For the same compound, the nocturnal akinesia entry with rats [3] (after four injections of 3-NP) was “reduce”. Besides, the nocturnal hyperactivity entry in the test with rats [3] (after two injections of 3-NP) was “reduce”. The “severity of dystonic symptoms” value with mutant dystonic hamster is reported as “dose-dependently reduce the severity of dystonic symptoms”. Further, in the test on rats [4], the muscle tone entry was “decrease the muscle tone enhanced by haloperidol”. In the test on Pietrain pig, the “tremor when standing and during locomotion” value is “reduce disabling tremor when standing and during locomotion”.
